In patent US20250177346A1 (priority 2022, published 2025):

Key:
[1] = test system: human hair follicles; assay type: cell-based
[2] = test system: hair dermal papilla cells (HDPCs) derived from human hair follicles; assay type: cell-based
[3] = test system: hair dermal papilla cells derived from human hair follicles; assay type: cell-based
[4] = test system: human hair follicles; assay type: cell-based; remark: listed apart in the source
[5] = test system: outer root sheath cells (ORSs) derived from human hair follicles; assay type: cell-based
[6] = test system: human hair dermal papilla cells; assay type: cell-based
[7] = test system: outer root sheath cells derived from human hair follicles; assay type: cell-based
[8] = test system: C57BL/6 mouse model; conditions: in vivo
[9] = test system: outer root sheath cells derived from human hair follicles; assay type: cell-based; remark: listed apart in the source
[10] = test system: C57BL/6 mouse model; conditions: in vivo; remark: listed apart in the source

O=C(NCc1ccc2c(c1)OCO2)c1c(Cl)cccc1Cl [Alda-1, N-(1,3-benzodioxol-5-ylmethyl)-2,6-dichlorobenzamide]
elongation of hair in human hair follicles [1]: promoted the elongation of hair
growth of hair in hair follicles compared with minoxidil [1]: higher levels compared to minoxidil
cell viability of hair dermal papilla cells [2]: significantly increased
proliferation of hair dermal papilla cells compared with minoxidil [2]: equivalent to or greater than those of minoxidil
fluorescence level indicating DCFDA (oxidative stress) [3]: significantly reduced
Ki-67 positive cell effect compared with minoxidil [4]: even better than that of minoxidil
level of Ki-67 positive cells in hair follicles [4]: increased
cell viability of outer root sheath cells [5]: significantly increased
proliferation of outer root sheath cells compared with minoxidil [5]: equivalent to or greater than those of minoxidil
protein level of basic fibroblast growth factor (bFGF) [6]: increased
protein level of insulin-like growth factor 1 (IGF-1) [6]: increased
protein level of keratinocyte growth factor (FGF-7) [6]: increased
protein level of platelet-derived growth factor (PDF) [6]: increased
ATP production of mitochondria, increase [7]: ~10 fold
basal respiration rate [7]: remarkably increased
maximal respiration rate [7]: remarkably increased
oxygen consumption efficiency of outer root sheath cells [7]: increased
hair growth / area of hair growth in the anagen phase [8]: hair growth was shown
oxidative stress in outer root sheath cells (DCFDA level, flow cytometry) [9]: significantly reduced
anagen induction score [10]: increased compared to the control
formation of hair follicles (hematoxylin and eosin staining) [10]: promoted
percentage of areas where hair in the anagen phase grew [10]: significantly increased
skin thickness [10]: increased compared to the control

Nc1cc(N2CCCCC2)nc(N)[n+]1[O-] [minoxidil, 6-piperidin-1-ylpyrimidine-2,4-diamine 3-oxide]
hair growth / area of hair growth in the anagen phase [8]: hair growth was shown
